Assay results taken from patent publication US9050341B2, “Methods of treating drug resistant and other tumors by administering 6,7-dialkoxy quinazoline derivatives” (NATCO PHARMA LIMITED, priority 2009, dated 2015).

Legend:
Test in all cases: KinomeScan kinase profiling
Type in all cases: binding
ACVR2A = target: T1, ACVR2A (Homo sapiens, UniProt P27037)
T1 construct: host or cells: E. coli host derived from BL21 (T7 phage lysate)
How it was run: (§1)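 Kinases were expressed as T7 phage fusions in a BL21-derived E. coli host and the cleared lysates were used. Ligand beads were blocked with biotin and buffer (1% BSA, 0.05% Tween 20, 1 mM DTT). Compounds came from 40× DMSO stocks, and phage in the eluates was titred by qPCR.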

BMX = target: T2, BMX (Homo sapiens, UniProt P51813)
T2 construct: purchased Ambit Biosciences Corp (KinomeScan); host or cells: E. coli host derived from the BL21 strain, T7 phage
How it was run: as §1

CDK11 = target: T3, CDK11 (Homo sapiens, UniProt Q9BWU1)
T3 construct: host or cells: T7 phage in E. coli (BL21-derived)
How it was run: as §1

CDK3 = target: T4, CDK3 (Homo sapiens, UniProt Q00526)
T4 construct: host or cells: T7 phage in E. coli (BL21-derived)
How it was run: as §1

CIT = target: T5, CIT (Homo sapiens, UniProt O14578)
T5 construct: host or cells: T7 phage in E. coli (BL21-derived)
How it was run: as §1

CLK3 = target: T6, CLK3 (Homo sapiens, UniProt P49761)
T6 construct: host or cells: T7 phage in E. coli (BL21-derived)
How it was run: as §1

CLK4 = target: T7, CLK4 (Homo sapiens, UniProt Q9HAZ1)
T7 construct: host or cells: T7 phage in E. coli (BL21-derived)
How it was run: as §1

CSNK2A2 = target: T8, CSNK2A2 (Homo sapiens, UniProt P19784)
T8 construct: purchased Ambit Biosciences Corp (KinomeScan); host or cells: T7 phage in E. coli host derived from BL21
How it was run: as §1

DCAMKL3 = target: T9, DCAMKL3 (Homo sapiens, UniProt Q9C098)
T9 construct: purchased Ambit Biosciences Corp (KinomeScan); host or cells: T7 phage in E. coli host derived from BL21
How it was run: as §1

EGFR (E746-A750del) = target: T10, EGFR (E746-A750del) (Homo sapiens, UniProt P00533, DEL746-750)
T10 construct: purchased Ambit Biosciences Corp (KinomeScan); host or cells: T7 phage in E. coli host derived from BL21
How it was run: as §1

FLT3 (N8411) = target: T11, FLT3 (N8411) (Homo sapiens, UniProt P36888, N841I)
T11 construct: host or cells: E. coli host derived from BL21, infected with T7 phage
How it was run: as §1

IKK-alpha = target: T12, IKK-alpha (Homo sapiens, UniProt O15111)
T12 construct: host or cells: T7 phage in E. coli host derived from BL21
How it was run: as §1

[1] = target: T13, JAK2 (JH1domain-catalytic) (Homo sapiens, UniProt O60674)
T13 construct: JAK2 (JH1domain-catalytic); host or cells: T7 phage in E. coli host derived from BL21
How it was run: as §1

KIT (V559D, V654A) = target: T14, KIT (V559D, V654A) (Homo sapiens, UniProt P10721, V559D/V654A)
T14 construct: host or cells: T7 phage in E. coli host derived from BL21
How it was run: as §1

MAP4K3 = target: T15, MAP4K3 (Homo sapiens, UniProt Q8IVH8)
T15 construct: host or cells: E. coli derived from BL21, infected with T7 phage
How it was run: as §1

MST3 = target: T16, MST3 (Homo sapiens, UniProt Q9Y6E0)
T16 construct: host or cells: T7 phage in E. coli host derived from BL21
How it was run: as §1

PCTK2 = target: T17, PCTK2 (Homo sapiens, UniProt Q00537)
T17 construct: host or cells: E. coli host derived from the BL21 strain, infected with T7 phage
How it was run: as §1

PIM3 = target: T18, PIM3 (Homo sapiens, UniProt Q86V86)
T18 construct: purchased Ambit Biosciences Corp (KinomeScan); host or cells: E. coli host derived from BL21, infected with T7 phage
How it was run: as §1

PLK4 = target: T19, PLK4 (Homo sapiens, UniProt O00444)
T19 construct: purchased Ambit Biosciences Corp (KinomeScan); host or cells: E. coli host derived from BL21, infected with T7 phage
How it was run: as §1

SRPK2 = target: T20, SRPK2 (Homo sapiens, UniProt P78362)
T20 construct: host or cells: E. coli host derived from the BL21 strain, T7 phage lysate
How it was run: as §1

SYK = target: T21, SYK (Homo sapiens, UniProt P43405)
T21 construct: host or cells: E. coli host derived from the BL21 strain, T7 phage lysate
How it was run: as §1

p38-delta = target: T22, p38-delta (Homo sapiens, UniProt O15264)
T22 construct: host or cells: E. coli host derived from the BL21 strain, infected with T7 phage
How it was run: as §1

T5 sequence (O14578 whole entry): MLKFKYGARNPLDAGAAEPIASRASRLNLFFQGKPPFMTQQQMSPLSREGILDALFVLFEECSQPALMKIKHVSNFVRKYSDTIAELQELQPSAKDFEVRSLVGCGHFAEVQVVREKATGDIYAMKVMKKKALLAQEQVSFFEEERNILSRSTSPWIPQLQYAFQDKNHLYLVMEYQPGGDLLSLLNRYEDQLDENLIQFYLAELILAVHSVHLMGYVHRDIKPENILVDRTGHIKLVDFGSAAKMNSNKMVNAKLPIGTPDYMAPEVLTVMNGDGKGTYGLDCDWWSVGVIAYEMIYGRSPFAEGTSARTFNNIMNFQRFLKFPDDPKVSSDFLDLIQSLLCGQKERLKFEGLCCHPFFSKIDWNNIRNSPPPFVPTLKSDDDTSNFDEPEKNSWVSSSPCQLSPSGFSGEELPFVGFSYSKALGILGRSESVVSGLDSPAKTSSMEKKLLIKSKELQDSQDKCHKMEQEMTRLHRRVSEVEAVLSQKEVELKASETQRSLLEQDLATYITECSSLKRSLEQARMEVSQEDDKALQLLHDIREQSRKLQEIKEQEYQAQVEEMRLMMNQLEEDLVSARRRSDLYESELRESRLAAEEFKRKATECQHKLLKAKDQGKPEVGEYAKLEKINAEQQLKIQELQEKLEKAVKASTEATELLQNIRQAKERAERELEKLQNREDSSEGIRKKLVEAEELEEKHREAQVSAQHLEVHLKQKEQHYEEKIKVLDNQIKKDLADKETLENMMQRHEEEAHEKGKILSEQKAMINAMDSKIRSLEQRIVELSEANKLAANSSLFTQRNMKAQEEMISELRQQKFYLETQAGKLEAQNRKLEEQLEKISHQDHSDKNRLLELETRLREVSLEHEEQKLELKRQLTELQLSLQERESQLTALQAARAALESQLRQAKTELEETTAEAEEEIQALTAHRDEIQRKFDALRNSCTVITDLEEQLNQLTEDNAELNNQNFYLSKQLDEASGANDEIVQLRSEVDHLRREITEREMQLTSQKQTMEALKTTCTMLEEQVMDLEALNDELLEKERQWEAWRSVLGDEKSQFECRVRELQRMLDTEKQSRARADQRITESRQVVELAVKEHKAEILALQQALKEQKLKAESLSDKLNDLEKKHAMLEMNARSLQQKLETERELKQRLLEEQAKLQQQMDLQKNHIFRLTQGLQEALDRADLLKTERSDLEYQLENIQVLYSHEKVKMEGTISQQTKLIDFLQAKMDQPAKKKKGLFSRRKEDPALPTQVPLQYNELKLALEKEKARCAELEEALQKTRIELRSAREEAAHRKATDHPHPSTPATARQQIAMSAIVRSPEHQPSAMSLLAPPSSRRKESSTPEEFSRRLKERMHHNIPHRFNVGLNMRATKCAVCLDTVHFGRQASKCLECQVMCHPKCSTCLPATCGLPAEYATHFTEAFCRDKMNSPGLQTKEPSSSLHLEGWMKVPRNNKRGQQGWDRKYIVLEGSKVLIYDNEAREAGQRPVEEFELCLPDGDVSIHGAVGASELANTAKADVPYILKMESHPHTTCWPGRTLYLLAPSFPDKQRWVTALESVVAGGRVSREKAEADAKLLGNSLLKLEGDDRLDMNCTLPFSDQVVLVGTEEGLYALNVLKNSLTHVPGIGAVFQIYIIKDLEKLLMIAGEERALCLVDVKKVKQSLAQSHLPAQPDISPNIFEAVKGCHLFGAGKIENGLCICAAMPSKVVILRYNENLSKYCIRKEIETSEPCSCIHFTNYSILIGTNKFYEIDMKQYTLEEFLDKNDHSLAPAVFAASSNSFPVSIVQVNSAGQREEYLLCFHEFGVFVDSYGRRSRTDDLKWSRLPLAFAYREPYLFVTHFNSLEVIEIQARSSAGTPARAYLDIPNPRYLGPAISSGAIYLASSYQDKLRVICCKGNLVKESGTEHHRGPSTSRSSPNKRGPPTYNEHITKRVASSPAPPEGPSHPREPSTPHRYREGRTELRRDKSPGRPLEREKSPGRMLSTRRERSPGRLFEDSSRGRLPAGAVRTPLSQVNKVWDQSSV
T13 sequence (O60674 849-1124 limits assumed): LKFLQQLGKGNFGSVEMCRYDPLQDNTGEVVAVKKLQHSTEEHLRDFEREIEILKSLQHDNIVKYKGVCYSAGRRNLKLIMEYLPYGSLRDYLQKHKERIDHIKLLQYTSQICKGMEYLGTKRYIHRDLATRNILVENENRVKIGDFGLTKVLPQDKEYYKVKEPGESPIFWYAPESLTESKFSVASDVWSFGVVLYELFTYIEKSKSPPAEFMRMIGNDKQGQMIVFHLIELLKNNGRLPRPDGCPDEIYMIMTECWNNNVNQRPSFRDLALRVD
T4 sequence (Q00526 whole entry): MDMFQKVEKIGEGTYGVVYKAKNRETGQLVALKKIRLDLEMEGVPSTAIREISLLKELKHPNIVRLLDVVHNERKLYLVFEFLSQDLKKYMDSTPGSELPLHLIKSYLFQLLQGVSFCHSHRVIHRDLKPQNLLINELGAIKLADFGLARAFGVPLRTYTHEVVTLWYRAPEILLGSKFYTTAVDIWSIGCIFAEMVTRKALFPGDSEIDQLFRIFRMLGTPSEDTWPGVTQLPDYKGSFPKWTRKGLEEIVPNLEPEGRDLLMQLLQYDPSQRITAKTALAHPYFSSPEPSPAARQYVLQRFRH
T14 sequence (P10721 26-976 V559D/V654A): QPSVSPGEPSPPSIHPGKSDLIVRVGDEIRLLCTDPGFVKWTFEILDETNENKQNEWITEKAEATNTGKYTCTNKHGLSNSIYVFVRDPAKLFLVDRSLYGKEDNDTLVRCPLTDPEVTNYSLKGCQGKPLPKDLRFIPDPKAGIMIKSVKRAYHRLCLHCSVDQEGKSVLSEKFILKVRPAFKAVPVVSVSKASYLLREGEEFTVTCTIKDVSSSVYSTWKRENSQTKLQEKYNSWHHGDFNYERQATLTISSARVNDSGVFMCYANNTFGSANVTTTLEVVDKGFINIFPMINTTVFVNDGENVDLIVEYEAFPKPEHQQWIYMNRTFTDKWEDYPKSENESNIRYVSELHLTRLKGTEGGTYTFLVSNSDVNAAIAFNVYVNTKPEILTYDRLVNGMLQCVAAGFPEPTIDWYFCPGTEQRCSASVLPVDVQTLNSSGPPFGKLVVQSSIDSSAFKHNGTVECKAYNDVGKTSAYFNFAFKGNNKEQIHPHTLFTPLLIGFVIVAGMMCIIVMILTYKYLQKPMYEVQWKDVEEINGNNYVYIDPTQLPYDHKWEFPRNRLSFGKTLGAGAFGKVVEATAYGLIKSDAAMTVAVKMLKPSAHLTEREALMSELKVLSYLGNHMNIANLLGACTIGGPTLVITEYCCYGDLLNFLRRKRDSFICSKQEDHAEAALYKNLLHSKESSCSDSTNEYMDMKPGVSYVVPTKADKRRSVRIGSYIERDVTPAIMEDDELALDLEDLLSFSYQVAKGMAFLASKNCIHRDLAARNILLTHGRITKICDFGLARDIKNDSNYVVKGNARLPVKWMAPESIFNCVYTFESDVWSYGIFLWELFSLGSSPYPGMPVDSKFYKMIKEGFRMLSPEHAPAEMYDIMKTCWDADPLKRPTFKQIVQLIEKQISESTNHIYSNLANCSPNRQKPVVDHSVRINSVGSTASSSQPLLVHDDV
T12 sequence (O15111 whole entry): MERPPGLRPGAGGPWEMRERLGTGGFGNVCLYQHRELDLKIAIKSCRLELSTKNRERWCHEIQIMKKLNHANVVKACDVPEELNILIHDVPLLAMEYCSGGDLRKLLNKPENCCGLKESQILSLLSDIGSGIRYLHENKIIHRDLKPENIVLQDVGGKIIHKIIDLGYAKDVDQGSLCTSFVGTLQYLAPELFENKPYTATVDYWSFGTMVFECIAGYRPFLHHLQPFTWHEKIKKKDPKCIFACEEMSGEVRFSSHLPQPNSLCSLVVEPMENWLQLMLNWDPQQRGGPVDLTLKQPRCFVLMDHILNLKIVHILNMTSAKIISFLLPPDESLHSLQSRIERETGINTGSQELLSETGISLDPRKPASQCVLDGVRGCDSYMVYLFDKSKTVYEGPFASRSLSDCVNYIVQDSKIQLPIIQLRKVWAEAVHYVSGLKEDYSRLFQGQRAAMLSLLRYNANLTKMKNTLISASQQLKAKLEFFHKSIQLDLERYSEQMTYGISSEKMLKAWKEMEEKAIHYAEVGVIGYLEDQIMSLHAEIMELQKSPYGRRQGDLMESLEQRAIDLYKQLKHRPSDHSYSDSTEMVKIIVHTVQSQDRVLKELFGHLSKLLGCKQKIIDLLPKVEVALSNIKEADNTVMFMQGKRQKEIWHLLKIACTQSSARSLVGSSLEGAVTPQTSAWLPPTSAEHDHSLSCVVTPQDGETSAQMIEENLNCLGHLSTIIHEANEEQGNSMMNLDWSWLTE
T1 sequence (P27037 20-513): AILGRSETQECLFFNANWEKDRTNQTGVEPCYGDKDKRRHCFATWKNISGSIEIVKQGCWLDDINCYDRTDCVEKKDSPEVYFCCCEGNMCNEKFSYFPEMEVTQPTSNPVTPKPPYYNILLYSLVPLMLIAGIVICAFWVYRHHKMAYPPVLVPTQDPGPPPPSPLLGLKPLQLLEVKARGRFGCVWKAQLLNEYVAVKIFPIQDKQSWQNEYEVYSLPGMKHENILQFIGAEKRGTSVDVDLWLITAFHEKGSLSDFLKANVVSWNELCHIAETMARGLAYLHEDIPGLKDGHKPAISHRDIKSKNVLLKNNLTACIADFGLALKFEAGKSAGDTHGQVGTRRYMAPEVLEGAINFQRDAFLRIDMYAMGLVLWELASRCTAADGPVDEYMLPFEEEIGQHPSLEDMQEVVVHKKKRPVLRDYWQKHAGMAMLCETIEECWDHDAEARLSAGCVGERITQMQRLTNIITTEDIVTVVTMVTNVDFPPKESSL

C#Cc1cccc(Nc2ncnc3cc(OC)c(OCCCN4CCOCC4)cc23)c1 [NRC-2694, N-(3-ethylnylphenyl)-7-methoxy-6-[3-(4-morpholinyl)propoxy]-4-quinazolinamine]
% Ctrl @ 10000 nM (ACVR2A): 92 % Ctrl | % Ctrl @ 10000 nM (BMX): 73 % Ctrl | % Ctrl @ 10000 nM (CDK11): 87 % Ctrl | % Ctrl @ 10000 nM (CDK3): 91 % Ctrl | % Ctrl @ 10000 nM (CIT): 5.0 % Ctrl | % Ctrl @ 10000 nM (CLK3): 45 % Ctrl | % Ctrl @ 10000 nM (CLK4): 17 % Ctrl | % Ctrl @ 10000 nM (CSNK2A2): 52 % Ctrl | % Ctrl @ 10000 nM (DCAMKL3): 14 % Ctrl | % Ctrl @ 10000 nM (EGFR (E746-A750del)): 0 % Ctrl | % Ctrl @ 10000 nM (FLT3 (N8411)): 16 % Ctrl | % Ctrl @ 10000 nM (IKK-alpha): 41 % Ctrl | % Ctrl @ 10000 nM [1]: 38 % Ctrl | % Ctrl @ 10000 nM (KIT (V559D, V654A)): 47 % Ctrl | % Ctrl @ 10000 nM (MAP4K3): 52 % Ctrl | % Ctrl @ 10000 nM (MST3): 42 % Ctrl | % Ctrl @ 10000 nM (PCTK2): 72 % Ctrl | % Ctrl @ 10000 nM (PIM3): 23 % Ctrl | % Ctrl @ 10000 nM (PLK4): 70 % Ctrl | % Ctrl @ 10000 nM (SRPK2): 73 % Ctrl | % Ctrl @ 10000 nM (SYK): 56 % Ctrl | % Ctrl @ 10000 nM (p38-delta): 100 % Ctrl
